Results published in ChEMBL document CHEMBL3608209, “N-Aryl benzenesulfonamide inhibitors of [3H]-thymidine incorporation and β-catenin signaling in human hepatocyte-derived Huh-7 carcinoma cells” (Bioorg Med Chem Lett, 2015).

Assays:
Huh-7 [1] = experiment: Inhibition of Wnt/beta catenin in human HuH7 cells assessed as [3H]-thymidine incorporation at 10 uM by scintillation counting analysis relative to DMSO-treated control; format: cell-based
Huh-7 [2] = experiment: Inhibition of Wnt/beta catenin in human HuH7 cells assessed as [3H]-thymidine incorporation at 10 uM by scintillation counting analysis relative to FH535; format: cell-based
Huh-7 [3] = experiment: Inhibition of Wnt/beta catenin in human HuH7 cells assessed as [3H]-thymidine incorporation at 10 uM by scintillation counting analysis relative to DMSO-treated control; values are per cent of control
Huh-7 [4] = experiment: Inhibition of Wnt/beta catenin in human HuH7 cells assessed as decrease in TCF/LEF-dependent promoter activation at 10 uM after 36 hrs by TOPFlash luciferase reporter gene assay relative to control; format: cell-based

SMILES: O=C(c1ccccc1)c1ccc(NS(=O)(=O)c2c(F)cccc2F)cc1
- inhibition (Huh-7 [1]): 33%
- fold change (FC) (Huh-7 [2]): 0.9
- level, % of control (Huh-7 [3]): 67%

SMILES: O=S(=O)(Nc1cccc(OCc2ccccc2)c1)c1c(F)cccc1F
- inhibition (Huh-7 [1]): 43%
- fold change (FC) (Huh-7 [2]): 1.2
- level, % of control (Huh-7 [3]): 57%

SMILES: O=[N+]([O-])c1ccc(NS(=O)(=O)c2cc(F)ccc2F)c2ccccc12
- inhibition (Huh-7 [1]): 31%
- fold change (FC) (Huh-7 [2]): 0.9
- inhibition (Huh-7 [4]): 64%
- level, % of control (Huh-7 [3]): 69%

SMILES: Cc1cc(CO)ccc1NS(=O)(=O)c1cc(Cl)ccc1Cl
- inhibition (Huh-7 [1]): 67%
- fold change (FC) (Huh-7 [2]): 1.9
- level, % of control (Huh-7 [3]): 33%

SMILES: O=S(=O)(Nc1cccc(OCc2ccccc2)c1)c1c(Cl)cccc1Cl
- inhibition (Huh-7 [1]): 31%
- fold change (FC) (Huh-7 [2]): 0.9
- inhibition (Huh-7 [4]): 53%
- level, % of control (Huh-7 [3]): 69%

SMILES: O=S(=O)(Nc1ccccc1Oc1ccccc1)c1c(F)cccc1F
- inhibition (Huh-7 [1]): 34%
- fold change (FC) (Huh-7 [2]): 0.9
- level, % of control (Huh-7 [3]): 66%

SMILES: O=C(c1ccccc1)c1ccc(NS(=O)(=O)c2ccccc2)cc1
- inhibition (Huh-7 [1]): 38%
- fold change (FC) (Huh-7 [2]): 1.1
- inhibition (Huh-7 [4]): 46%
- level, % of control (Huh-7 [3]): 62%

SMILES: O=[N+]([O-])c1ccc(NS(=O)(=O)c2cc(Cl)ccc2Cl)c2ccccc12
- inhibition (Huh-7 [1]): 48%
- fold change (FC) (Huh-7 [2]): 1.3
- level, % of control (Huh-7 [3]): 52%

SMILES: O=C(c1ccccc1)c1ccc(NS(=O)(=O)c2c(Cl)cccc2Cl)cc1
- inhibition (Huh-7 [1]): 33%
- fold change (FC) (Huh-7 [2]): 0.9
- level, % of control (Huh-7 [3]): 67%

SMILES: COC(=O)c1ccc(NS(=O)(=O)c2c(Cl)cccc2Cl)c(C)c1
- inhibition (Huh-7 [1]): 29%
- fold change (FC) (Huh-7 [2]): 0.8
- level, % of control (Huh-7 [3]): 71%

SMILES: COC(=O)c1ccc(NS(=O)(=O)c2cc(Cl)ccc2Cl)c(C)c1
- inhibition (Huh-7 [1]): 18%
- fold change (FC) (Huh-7 [2]): 0.5
- level, % of control (Huh-7 [3]): 82%

SMILES: COC(=O)c1cc(Cl)ccc1NS(=O)(=O)c1cc(Cl)ccc1Cl
- inhibition (Huh-7 [1]): 0%
- fold change (FC) (Huh-7 [2]): 0
- level, % of control (Huh-7 [3]): 106%

SMILES: Cc1cc(CO)ccc1NS(=O)(=O)c1c(Cl)cccc1Cl
- inhibition (Huh-7 [1]): 73%
- fold change (FC) (Huh-7 [2]): 2
- inhibition (Huh-7 [4]): 13%
- level, % of control (Huh-7 [3]): 27%

SMILES: O=[N+]([O-])c1ccc(NS(=O)(=O)c2c(Cl)cccc2Cl)c2ccccc12
- inhibition (Huh-7 [1]): 26%
- fold change (FC) (Huh-7 [2]): 0.7
- inhibition (Huh-7 [4]): 47%
- level, % of control (Huh-7 [3]): 74%

SMILES: O=[N+]([O-])c1ccc(NS(=O)(=O)c2ccccc2)c2ccccc12
- inhibition (Huh-7 [1]): 42%
- fold change (FC) (Huh-7 [2]): 1.2
- inhibition (Huh-7 [4]): 72%
- level, % of control (Huh-7 [3]): 58%

SMILES: O=S(=O)(Nc1cccc(OCc2ccccc2)c1)c1ccccc1
- inhibition (Huh-7 [1]): 29%
- fold change (FC) (Huh-7 [2]): 0.8
- level, % of control (Huh-7 [3]): 71%

SMILES: Cc1cc(CO)ccc1NS(=O)(=O)c1c(F)cccc1F
- inhibition (Huh-7 [1]): 38%
- fold change (FC) (Huh-7 [2]): 1.1
- level, % of control (Huh-7 [3]): 62%

SMILES: COC(=O)c1cc(F)ccc1NS(=O)(=O)c1cc(Cl)ccc1Cl
- inhibition (Huh-7 [1]): 7%
- fold change (FC) (Huh-7 [2]): 0.2
- inhibition (Huh-7 [4]): 61%
- level, % of control (Huh-7 [3]): 93%

SMILES: Cc1cc([N+](=O)[O-])ccc1NS(=O)(=O)c1cc(Cl)ccc1Cl
- inhibition (Huh-7 [1]): 36%
- inhibition (Huh-7 [4]): 73%
- level, % of control (Huh-7 [3]): 64%

SMILES: O=S(=O)(Nc1ccccc1Oc1ccccc1)c1c(Cl)cccc1Cl
- inhibition (Huh-7 [1]): 38%
- fold change (FC) (Huh-7 [2]): 1.1
- inhibition (Huh-7 [4]): 45%
- level, % of control (Huh-7 [3]): 62%

SMILES: Cc1cc(CO)ccc1NS(=O)(=O)c1ccccc1
- inhibition (Huh-7 [1]): 53%
- fold change (FC) (Huh-7 [2]): 1.5
- level, % of control (Huh-7 [3]): 47%
